Test results as given in ChEMBL document CHEMBL1201862, “PubChem BioAssay data set” (2004).
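In this assay, cells in 96-well plates receive the compound at five concentrations for 48 hours. Endpoints are linearly interpolated between the surrounding concentrations. GI50 marks 50% less growth.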 Calls of active or inactive are those of the source. Cut-off read from the data, not from the text of the source: active = GI50 up to about 1.1 µM and inactive = higher.

What was measured:
Assay in all cases: inhibition of tumour cell growth, NCI panel, 48 h
LXFL 529 = test system: LXFL 529
SR = test system: SR
SNB-78 = test system: SNB-78
KM12 = test system: KM12
A498 = test system: A498
UO-31 = test system: UO-31
DMS-114 = test system: DMS-114
COLO 205 = test system: COLO 205
M19-MEL = test system: M19-MEL
SNB-19 = test system: SNB-19
HOP-62 = test system: HOP-62
IGROV-1 = test system: IGROV-1
NCI-H23 = test system: NCI-H23
UACC-257 = test system: UACC-257
CCRF-CEM = test system: CCRF-CEM
M14 = test system: M14
RXF 393 = test system: RXF 393
SF-295 = test system: SF-295
SK-OV-3 = test system: SK-OV-3
NCI-H522 = test system: NCI-H522
HCC 2998 = test system: HCC 2998
ACHN = test system: ACHN
UACC-62 = test system: UACC-62
SK-MEL-2 = test system: SK-MEL-2
HT-29 = test system: HT-29
SNB-75 = test system: SNB-75
HCT-116 = test system: HCT-116
SF-539 = test system: SF-539
K562 = test system: K562
OVCAR-4 = test system: OVCAR-4
OVCAR-3 = test system: OVCAR-3
NCI-H460 = test system: NCI-H460
HOP-92 = test system: HOP-92
SK-MEL-28 = test system: SK-MEL-28
MOLT-4 = test system: MOLT-4
RPMI-8226 = test system: RPMI-8226
SF-268 = test system: SF-268
A549 = test system: A549
PC-3 = test system: PC-3
LOX IMVI = test system: LOX IMVI
OVCAR-5 = test system: OVCAR-5
U-251 = test system: U-251
BT-549 = test system: BT-549
HCT-15 = test system: HCT-15
OVCAR-8 = test system: OVCAR-8
KM-20L2 = test system: KM-20L2
DLD-1 = test system: DLD-1
Hs-578T = test system: Hs-578T
DU-145 = test system: DU-145
SN12C = test system: SN12C
NCI-H226 = test system: NCI-H226
Malme-3M = test system: Malme-3M
T47D = test system: T47D
MDA-N = test system: MDA-N
MCF7 = test system: MCF7
NCI/ADR-RES = test system: NCI/ADR-RES
MDA-MB-435 = test system: MDA-MB-435
DMS-273 = test system: DMS-273
CAKI-1 = test system: CAKI-1
EKVX = test system: EKVX
SK-MEL-5 = test system: SK-MEL-5
HL-60 = test system: HL-60
TK-10 = test system: TK-10
786-0 = test system: 786-0
SW-620 = test system: SW-620
MDA-MB-231 = test system: MDA-MB-231

## COc1cc2ccc1NC(=O)N1CCN(CC1)C(=O)Nc1ccc(cc1OC)-c1ccc(c(OC)c1)NC(=O)N1CCN(CC1)C(=O)Nc1ccc-2cc1OC
LXFL 529
  GI50: > 100 µM (inactive)
SR
  GI50: > 100 µM (inactive)
SNB-78
  GI50: > 100 µM (inactive)
KM12
  GI50: > 100 µM (inactive)
A498
  GI50: > 100 µM (inactive)
UO-31
  GI50: > 100 µM (inactive)
DMS-114
  GI50: > 100 µM (inactive)
COLO 205
  GI50: > 100 µM (inactive)
M19-MEL
  GI50: > 100 µM (inactive)
SNB-19
  GI50: > 100 µM (inactive)
HOP-62
  GI50: > 100 µM (inactive)
IGROV-1
  GI50: > 100 µM (inactive)
NCI-H23
  GI50: > 100 µM (inactive)
UACC-257
  GI50: > 100 µM (inactive)
CCRF-CEM
  GI50: > 100 µM (inactive)
M14
  GI50: > 100 µM (inactive)
RXF 393
  GI50: > 100 µM (inactive)
SF-295
  GI50: > 100 µM (inactive)
SK-OV-3
  GI50: > 100 µM (inactive)
NCI-H522
  GI50: > 100 µM (inactive)
HCC 2998
  GI50: > 100 µM (inactive)
ACHN
  GI50: > 100 µM (inactive)
UACC-62
  GI50: > 100 µM (inactive)
SK-MEL-2
  GI50: > 100 µM (inactive)
HT-29
  GI50: > 100 µM (inactive)
SNB-75
  GI50: > 100 µM (inactive)
HCT-116
  GI50: > 100 µM (inactive)
SF-539
  GI50: > 100 µM (inactive)
K562
  GI50: > 100 µM (inactive)
OVCAR-4
  GI50: > 100 µM (inactive)
OVCAR-3
  GI50: > 100 µM (inactive)
NCI-H460
  GI50: > 100 µM (inactive)
HOP-92
  GI50: > 100 µM (inactive)
SK-MEL-28
  GI50: > 100 µM (inactive)
MOLT-4
  GI50: > 100 µM (inactive)
RPMI-8226
  GI50: > 100 µM (inactive)
SF-268
  GI50: > 100 µM (inactive)

## Cc1ccc(C(=O)NCc2ccccc2)cc1/N=N/N(C)C
A549
  GI50: > 77.8 µM (inactive)
PC-3
  GI50: 71.3 µM (inactive)
LXFL 529
  GI50: 47.5 µM (inactive)
SR
  GI50: 60 µM (inactive)
SNB-78
  GI50: > 100 µM (inactive)
KM12
  GI50: 64.4 µM (inactive)
LOX IMVI
  GI50: 58.1 µM (inactive)
UO-31
  GI50: > 31.5 µM (inactive)
OVCAR-5
  GI50: > 100 µM (inactive)
U-251
  GI50: > 100 µM (inactive)
BT-549
  GI50: > 100 µM (inactive)
COLO 205
  GI50: > 100 µM (inactive)
M19-MEL
  GI50: > 100 µM (inactive)
HCT-15
  GI50: > 83 µM
SNB-19
  GI50: > 100 µM (inactive)
HOP-62
  GI50: > 100 µM (inactive)
OVCAR-8
  GI50: > 100 µM (inactive)
IGROV-1
  GI50: > 100 µM (inactive)
KM-20L2
  GI50: 65.9 µM (inactive)
DLD-1
  GI50: > 100 µM (inactive)
NCI-H23
  GI50: > 100 µM (inactive)
UACC-257
  GI50: 21.4 µM (inactive)
CCRF-CEM
  GI50: 87.7 µM (inactive)
Hs-578T
  GI50: > 100 µM (inactive)
M14
  GI50: > 100 µM (inactive)
DU-145
  GI50: > 100 µM (inactive)
SN12C
  GI50: > 100 µM (inactive)
NCI-H226
  GI50: > 100 µM (inactive)
Malme-3M
  GI50: > 100 µM (inactive)
SF-295
  GI50: > 71.9 µM (inactive)
SK-OV-3
  GI50: > 100 µM (inactive)
NCI-H522
  GI50: 27.7 µM (inactive)
HCC 2998
  GI50: > 100 µM (inactive)
T47D
  GI50: 39.7 µM (inactive)
ACHN
  GI50: > 75.3 µM (inactive)
UACC-62
  GI50: > 100 µM (inactive)
MDA-N
  GI50: > 100 µM (inactive)
SK-MEL-2
  GI50: > 100 µM (inactive)
HT-29
  GI50: > 58.7 µM (inactive)
HCT-116
  GI50: > 72.1 µM (inactive)
MCF7
  GI50: > 100 µM (inactive)
SF-539
  GI50: > 100 µM (inactive)
NCI/ADR-RES
  GI50: 86.3 µM (inactive)
MDA-MB-435
  GI50: > 100 µM (inactive)
K562
  GI50: > 100 µM (inactive)
DMS-273
  GI50: > 100 µM (inactive)
OVCAR-4
  GI50: > 76.2 µM (inactive)
CAKI-1
  GI50: > 100 µM (inactive)
EKVX
  GI50: > 100 µM (inactive)
OVCAR-3
  GI50: 44.3 µM (inactive)
SK-MEL-5
  GI50: > 74.3 µM (inactive)
HL-60
  GI50: 37.2 µM (inactive)
NCI-H460
  GI50: > 100 µM (inactive)
TK-10
  GI50: > 100 µM (inactive)
786-0
  GI50: > 100 µM (inactive)
HOP-92
  GI50: 65 µM (inactive)
SW-620
  GI50: > 100 µM (inactive)
SK-MEL-28
  GI50: > 96.6 µM (inactive)
MOLT-4
  GI50: 56.8 µM (inactive)
MDA-MB-231
  GI50: > 100 µM (inactive)
RPMI-8226
  GI50: 40.9 µM (inactive)
SF-268
  GI50: > 62.5 µM (inactive)

## COc1cc2c(NCCCCCO)ncnc2c(OC)c1OC
A549
  GI50: > 100 µM (inactive)
PC-3
  GI50: > 100 µM (inactive)
SR
  GI50: > 87.9 µM (inactive)
KM12
  GI50: > 100 µM (inactive)
LOX IMVI
  GI50: > 100 µM (inactive)
A498
  GI50: > 100 µM (inactive)
UO-31
  GI50: > 85.9 µM (inactive)
OVCAR-5
  GI50: > 100 µM (inactive)
U-251
  GI50: > 100 µM (inactive)
BT-549
  GI50: > 100 µM (inactive)
COLO 205
  GI50: > 100 µM (inactive)
HCT-15
  GI50: > 100 µM
SNB-19
  GI50: > 100 µM (inactive)
HOP-62
  GI50: > 100 µM (inactive)
OVCAR-8
  GI50: > 100 µM (inactive)
IGROV-1
  GI50: > 100 µM (inactive)
NCI-H23
  GI50: > 100 µM (inactive)
UACC-257
  GI50: > 100 µM (inactive)
CCRF-CEM
  GI50: > 93.3 µM (inactive)
Hs-578T
  GI50: > 100 µM (inactive)
M14
  GI50: > 100 µM (inactive)
DU-145
  GI50: > 100 µM (inactive)
RXF 393
  GI50: > 100 µM (inactive)
SN12C
  GI50: > 100 µM (inactive)
NCI-H226
  GI50: 43.9 µM (inactive)
Malme-3M
  GI50: > 63 µM (inactive)
SF-295
  GI50: > 100 µM (inactive)
SK-OV-3
  GI50: > 100 µM (inactive)
NCI-H522
  GI50: > 100 µM (inactive)
HCC 2998
  GI50: > 100 µM (inactive)
T47D
  GI50: > 96.2 µM (inactive)
ACHN
  GI50: > 100 µM (inactive)
UACC-62
  GI50: > 100 µM (inactive)
MDA-N
  GI50: > 100 µM (inactive)
SK-MEL-2
  GI50: > 100 µM (inactive)
HT-29
  GI50: > 100 µM (inactive)
SNB-75
  GI50: > 100 µM (inactive)
HCT-116
  GI50: > 100 µM (inactive)
MCF7
  GI50: > 100 µM (inactive)
SF-539
  GI50: > 100 µM (inactive)
NCI/ADR-RES
  GI50: > 100 µM (inactive)
MDA-MB-435
  GI50: > 100 µM (inactive)
K562
  GI50: > 100 µM (inactive)
OVCAR-4
  GI50: > 100 µM (inactive)
CAKI-1
  GI50: > 100 µM (inactive)
EKVX
  GI50: > 100 µM (inactive)
OVCAR-3
  GI50: > 100 µM (inactive)
SK-MEL-5
  GI50: > 84.7 µM (inactive)
HL-60
  GI50: > 100 µM (inactive)
NCI-H460
  GI50: > 100 µM (inactive)
TK-10
  GI50: > 100 µM (inactive)
786-0
  GI50: > 100 µM (inactive)
HOP-92
  GI50: 43.8 µM (inactive)
SW-620
  GI50: > 100 µM (inactive)
SK-MEL-28
  GI50: > 100 µM (inactive)
MOLT-4
  GI50: > 100 µM (inactive)
MDA-MB-231
  GI50: 95.5 µM (inactive)
RPMI-8226
  GI50: > 93.1 µM (inactive)
SF-268
  GI50: > 100 µM (inactive)
